# According to US20110105496A1, “Methods For The Treatment Of Myosin Heavy Chain-Mediated Conditions Using 4,7-Dihydrothieno[2,3-B]Pyridine Compounds” (priority 2005, published 2011):
# Read-outs that look alike come from different tables or passages of the source.
# System: alpha-MyHC
# Assay: alpha-MyHC cytoblot process in neonatal rat ventricular myocytes (NRVM)
# Assay type: cell-based
# [1] = Table 2 (esters), NRVM, 72 hours, alpha-MyHC cytoblot
# [2] = Table 2 (esters), NRVM, 72 hours, maximum of dose response fit
# [3] = Table 4, NRVM, 72 hours, maximum of dose response fit
Structure (SMILES),EC50 [1],Max Plateau [2],other results
CCOC(=O)C1=C(CC)Nc2sc(C(=O)c3ccc(Cl)c(Cl)c3)c(N)c2C1c1ccncc1Cl (stereo not drawn) [Compound 169],4.95 nM,261.04 per cent fraction of low control,
CCC1=C(C(=O)OC)C(c2cc(F)cc(F)c2)c2c(sc(C(=O)c3ccc(F)c(F)c3)c2N)N1 (stereo not drawn) [Compound 170],1.89 nM,262.16 per cent fraction of low control,
CCC1=C(C(=O)OC)C(c2cc(F)cc(F)c2)c2c(sc(C(=O)c3ccc(Cl)c(Cl)c3)c2N)N1 (stereo not drawn) [Compound 171],0.828 nM,296.79 per cent fraction of low control,
CCC1=C(C(=O)OC)C(c2cc(F)cc(F)c2)c2c(sc(C(=O)c3ccccc3)c2N)N1 (stereo not drawn) [Compound 172],0.478 nM,304.08 per cent fraction of low control,
CCOC(=O)C1=C(CC)Nc2sc(C(=O)c3ccc(F)c(F)c3)c(N)c2C1c1ccncc1F (stereo not drawn) [Compound 173],,257.43 per cent fraction of low control,
"CCOC(=O)C1=C(CC)Nc2sc(C(=O)c3cccnc3)c(N)c2C1c1ccncc1F (stereo not drawn) [Compound 174, 3-amino-6-ethyl-4-(3 fluoro-pyridin-4-yl)-2-(pyridine-3-carbonyl)-4,7 dihydro-thieno[2,3-b]pyridine-5-carboxylic acid ethyl ester]",,263.57 per cent fraction of low control,
CCC1=C(C(=O)OCC(C)OC)C(c2ccccc2F)c2c(sc(C(=O)c3cccc(C#N)c3)c2N)N1 (stereo not drawn) [Compound 180],63.2 nM,279.68 ± 65.32 per cent fraction of low control,
CCC1=C(C(=O)OC(C)COC)C(c2ccccc2F)c2c(sc(C(=O)c3cccc(Cl)c3)c2N)N1 (stereo not drawn) [Compound 181],21 nM,240.80 ± 29.53 per cent fraction of low control,
CCC1=C(C(=O)OC(C)COC)C(c2ccccc2F)c2c(sc(C(=O)c3cccc(C#N)c3)c2N)N1 (stereo not drawn) [Compound 182],60.9 nM,251.54 ± 25.09 per cent fraction of low control,
CCC1=C(C(=O)OCC(C)OC)C(c2ccccc2F)c2c(sc(C(=O)c3cccc(C#N)c3)c2N)N1 (stereo not drawn) [Compound 185],1710 nM,172.89 ± 23.52 per cent fraction of low control,
CCC1=C(C(=O)OC(C)COC)C(c2ccccc2F)c2c(sc(C(=O)c3cccc(C#N)c3)c2N)N1 (stereo not drawn) [Compound 193],77.6 nM,230.28 ± 6.46 per cent fraction of low control,
CCOC(=O)C1=C(C)Nc2sc(C(=O)c3cccc(Br)c3)c(N)c2C1(C)c1ccccc1 (stereo not drawn) [Compound 197],,,"EC50 (Rattus norvegicus, Ventricular myocyte, Table 4, NRVM, 72 hours, alpha-MyHC cytoblot): 792 nM; Emax (Rattus norvegicus, Ventricular myocyte, Table 4, NRVM, 72 hours, maximum of dose response fit, read-out: Max Plateau): 160 ± 10.9%"
CCOC(=O)C1=C(C)Nc2sc(C(=O)c3ccccc3)c(N)c2C1(C)c1ccccc1 (stereo not drawn) [Compound 206],,,Max Plateau [3]: 169.32 ± 23.07 per cent fraction of low control
"CC(=O)C1=C(C)Nc2sc(C(=O)c3ccc(Cl)c(Cl)c3)c(N)c2C1(C)c1cccc(F)c1 (stereo not drawn) [Compound 207, 1-[3-amino-2-(3,4 dichloro-benzoyl)-4-(3 fluoro-phenyl)-4,6-dimethyl-4,7 dihydro-thieno[2,3-b]pyridin-5-yl]-ethanone]",,,Max Plateau [3]: 148.73 ± 27.95 per cent fraction of low control
"CC(=O)C1=C(C)N(C)c2sc(C(=O)c3ccccc3)c(N)c2C1c1ccccc1 (stereo not drawn) [Compound 208, 1-(3-amino-2-benzoyl-6,7 dimethyl-4-phenyl-4,7 dihydro-thieno[2,3-b]pyridin-5-yl)-ethanone]",,,"Max Plateau (Table 5 (R^4 substituted), NRVM, 72 hours, maximum of dose response fit): 173.33 per cent fraction of low control"
"CCC1=C(C(=O)OCCNC(=O)OC(C)(C)C)C(c2ccccc2F)c2c(sc(C(=O)c3ccc(Cl)c(Cl)c3)c2N)N1 (stereo not drawn) [Compound 222, Bac protected 3-amino-2-(3,4 dichloro-benzoyl)-4-(2 fluoro-phenyl)-6-methyl-4,7 dihydro-thieno[2,3-b]pyridine-5-carboxylic acid 2-amino-ethyl ester]",,,EC50: 94.3 nM; Max Plateau: 128.75 ± 8.38
"N[C@@H](Cc1cc(I)c(Oc2ccc(O)c(I)c2)c(I)c1)C(=O)O [Compound T3, 3,5,3′-triiodo-L-thyronine, reference compound]",,,"Relative Light Unit (RLU) values (high control, 3 nM T3, low control (vehicle only) 2,000-3,000): 8,000-10,000 RLU"
CC(=O)NCCOC(=O)C1=C(C)Nc2sc(C(=O)c3ccc(Cl)c(Cl)c3)c(N)c2C1c1ccccc1 (stereo not drawn) [compound 214],,,Max Plateau: 100.00 ± 0.00
CCC1=C(C(=O)OCCN)C(c2ccccc2F)c2c(sc(C(=O)c3ccc(Cl)c(Cl)c3)c2N)N1 (stereo not drawn) [compound 221],,,EC50: 22.7 nM; Max Plateau: 156.50 ± 9.76
CC1=C(C(=O)OCCNC(=O)OC(C)(C)C)C(c2ccccc2F)c2c(sc(C(=O)c3ccc(Cl)c(Cl)c3)c2N)N1 (stereo not drawn) [compound 223],,,EC50: 10.8 nM; Max Plateau: 213.11 ± 12.55
